Laboratory results taken from paper PMC3639963, “A New Class of Small Molecule Inhibitor of BMP Signaling” (PLoS ONE, 2013).

Experiments:
Assay in all cases: Nanosyn kinase profiling
Assay type in all cases: biochemical
Conditions in all cases: read-out: Percentage inhibition; for inhibition at 0.1 µM: 0.1 µM inhibitor; for inhibition at 1 µM: 1 µM inhibitor
ALK = target: T1, ALK (Homo sapiens, UniProt Q9UM73)
T1 construct: purchased Nanosyn (enzymatic panel); SGC in-house recombinant human kinases (DSF panel); Invitrogen (ALK1-6)
T1 sequence (Q9UM73 19-1620): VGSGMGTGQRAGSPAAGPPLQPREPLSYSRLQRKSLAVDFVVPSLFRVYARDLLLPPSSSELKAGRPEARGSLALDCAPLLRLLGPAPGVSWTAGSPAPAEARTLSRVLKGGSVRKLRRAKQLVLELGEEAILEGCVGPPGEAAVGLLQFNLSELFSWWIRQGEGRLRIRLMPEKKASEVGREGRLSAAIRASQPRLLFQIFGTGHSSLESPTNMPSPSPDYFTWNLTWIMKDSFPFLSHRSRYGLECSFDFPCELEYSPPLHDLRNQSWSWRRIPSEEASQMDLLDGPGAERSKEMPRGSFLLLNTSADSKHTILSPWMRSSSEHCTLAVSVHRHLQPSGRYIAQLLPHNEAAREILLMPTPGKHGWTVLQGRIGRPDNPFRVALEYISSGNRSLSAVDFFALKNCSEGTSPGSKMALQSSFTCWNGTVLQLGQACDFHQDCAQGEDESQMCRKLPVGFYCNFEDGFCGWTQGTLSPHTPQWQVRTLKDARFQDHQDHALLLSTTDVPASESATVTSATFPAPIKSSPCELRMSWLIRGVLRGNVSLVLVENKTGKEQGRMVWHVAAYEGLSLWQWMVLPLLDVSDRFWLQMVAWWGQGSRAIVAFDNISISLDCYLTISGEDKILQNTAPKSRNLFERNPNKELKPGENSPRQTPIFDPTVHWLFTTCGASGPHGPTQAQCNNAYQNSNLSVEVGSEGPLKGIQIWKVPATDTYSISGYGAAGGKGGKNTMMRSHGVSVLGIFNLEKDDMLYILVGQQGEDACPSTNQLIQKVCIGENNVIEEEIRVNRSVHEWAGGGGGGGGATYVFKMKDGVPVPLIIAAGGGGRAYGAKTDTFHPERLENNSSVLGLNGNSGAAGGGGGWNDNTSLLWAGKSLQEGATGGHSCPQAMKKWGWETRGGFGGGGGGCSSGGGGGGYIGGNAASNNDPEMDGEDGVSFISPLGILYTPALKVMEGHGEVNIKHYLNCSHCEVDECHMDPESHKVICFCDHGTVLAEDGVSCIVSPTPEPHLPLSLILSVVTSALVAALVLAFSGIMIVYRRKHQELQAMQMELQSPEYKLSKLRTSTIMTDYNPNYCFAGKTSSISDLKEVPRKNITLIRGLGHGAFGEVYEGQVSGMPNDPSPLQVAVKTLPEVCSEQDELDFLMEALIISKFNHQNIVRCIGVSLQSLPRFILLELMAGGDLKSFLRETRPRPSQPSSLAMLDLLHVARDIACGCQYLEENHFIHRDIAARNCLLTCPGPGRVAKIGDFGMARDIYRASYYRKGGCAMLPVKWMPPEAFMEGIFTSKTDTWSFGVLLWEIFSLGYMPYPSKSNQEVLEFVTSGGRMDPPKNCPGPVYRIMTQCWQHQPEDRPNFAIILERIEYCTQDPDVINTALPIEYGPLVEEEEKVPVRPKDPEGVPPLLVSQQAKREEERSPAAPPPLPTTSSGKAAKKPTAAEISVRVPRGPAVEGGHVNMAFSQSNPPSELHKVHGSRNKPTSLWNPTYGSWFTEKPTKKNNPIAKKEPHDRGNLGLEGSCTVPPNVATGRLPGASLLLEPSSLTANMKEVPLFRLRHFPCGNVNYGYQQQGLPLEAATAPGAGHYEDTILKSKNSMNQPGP
Method in brief: (§1)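 Percent inhibition of each kinase was measured with the inhibitor at 0.1 µM and at 1 µM, as part of a 200-kinase human selectivity panel.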

BRK = target: T2, BRK (Homo sapiens, UniProt Q13882)
T2 construct: purchased Nanosyn (enzymatic panel); SGC in-house recombinant human kinases (DSF panel); Invitrogen (ALK1-6)
T2 sequence (Q13882 whole entry): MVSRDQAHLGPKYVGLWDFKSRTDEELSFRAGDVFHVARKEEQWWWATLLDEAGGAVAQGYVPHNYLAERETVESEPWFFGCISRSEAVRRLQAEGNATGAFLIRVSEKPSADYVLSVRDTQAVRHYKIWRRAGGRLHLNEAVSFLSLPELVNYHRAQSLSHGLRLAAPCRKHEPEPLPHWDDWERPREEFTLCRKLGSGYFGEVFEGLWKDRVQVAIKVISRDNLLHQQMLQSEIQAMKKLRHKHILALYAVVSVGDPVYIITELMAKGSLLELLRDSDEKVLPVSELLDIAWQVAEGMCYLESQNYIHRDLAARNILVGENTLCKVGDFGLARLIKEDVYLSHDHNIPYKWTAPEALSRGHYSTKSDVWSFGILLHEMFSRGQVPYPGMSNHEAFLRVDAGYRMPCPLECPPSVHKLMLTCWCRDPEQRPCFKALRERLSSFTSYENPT
Method in brief: as §1

CK1γ1 = target: T3, CK1γ1 (Homo sapiens, UniProt Q9HCP0)
T3 construct: purchased Nanosyn (enzymatic panel); SGC in-house recombinant human kinases (DSF panel); Invitrogen (ALK1-6)
T3 sequence (Q9HCP0 whole entry): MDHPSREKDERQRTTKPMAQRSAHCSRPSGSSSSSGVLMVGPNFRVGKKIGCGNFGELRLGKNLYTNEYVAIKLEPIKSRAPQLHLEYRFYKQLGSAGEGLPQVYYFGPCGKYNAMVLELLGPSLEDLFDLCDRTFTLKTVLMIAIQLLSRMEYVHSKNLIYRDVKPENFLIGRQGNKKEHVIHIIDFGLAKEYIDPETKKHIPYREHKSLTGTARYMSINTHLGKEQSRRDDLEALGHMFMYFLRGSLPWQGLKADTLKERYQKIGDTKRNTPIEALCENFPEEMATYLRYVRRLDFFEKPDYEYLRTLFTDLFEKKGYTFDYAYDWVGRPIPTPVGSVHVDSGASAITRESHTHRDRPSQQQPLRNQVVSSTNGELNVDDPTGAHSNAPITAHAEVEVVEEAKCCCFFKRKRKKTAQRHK
Method in brief: as §1

CLK3 = target: T4, CLK3 (Homo sapiens, UniProt P49761)
T4 construct: purchased Nanosyn (enzymatic panel); SGC in-house recombinant human kinases (DSF panel); Invitrogen (ALK1-6)
T4 sequence (P49761 whole entry): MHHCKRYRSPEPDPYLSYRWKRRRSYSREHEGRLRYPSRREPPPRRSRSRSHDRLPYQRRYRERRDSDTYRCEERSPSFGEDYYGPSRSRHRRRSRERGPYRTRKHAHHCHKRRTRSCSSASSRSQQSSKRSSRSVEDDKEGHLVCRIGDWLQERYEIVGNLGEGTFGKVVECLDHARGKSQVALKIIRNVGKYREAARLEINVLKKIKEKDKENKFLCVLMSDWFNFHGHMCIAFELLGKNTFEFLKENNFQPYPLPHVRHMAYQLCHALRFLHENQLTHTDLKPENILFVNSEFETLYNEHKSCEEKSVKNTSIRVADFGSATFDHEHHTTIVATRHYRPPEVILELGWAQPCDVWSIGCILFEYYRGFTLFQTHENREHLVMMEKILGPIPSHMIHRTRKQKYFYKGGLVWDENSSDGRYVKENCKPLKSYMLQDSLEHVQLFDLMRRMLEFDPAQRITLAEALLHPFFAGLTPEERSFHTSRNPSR
Method in brief: as §1

FGFR1 = target: T5, FGFR1 (Homo sapiens, UniProt P11362)
T5 construct: purchased Nanosyn (enzymatic panel); SGC in-house recombinant human kinases (DSF panel); Invitrogen (ALK1-6)
T5 sequence (P11362 22-822): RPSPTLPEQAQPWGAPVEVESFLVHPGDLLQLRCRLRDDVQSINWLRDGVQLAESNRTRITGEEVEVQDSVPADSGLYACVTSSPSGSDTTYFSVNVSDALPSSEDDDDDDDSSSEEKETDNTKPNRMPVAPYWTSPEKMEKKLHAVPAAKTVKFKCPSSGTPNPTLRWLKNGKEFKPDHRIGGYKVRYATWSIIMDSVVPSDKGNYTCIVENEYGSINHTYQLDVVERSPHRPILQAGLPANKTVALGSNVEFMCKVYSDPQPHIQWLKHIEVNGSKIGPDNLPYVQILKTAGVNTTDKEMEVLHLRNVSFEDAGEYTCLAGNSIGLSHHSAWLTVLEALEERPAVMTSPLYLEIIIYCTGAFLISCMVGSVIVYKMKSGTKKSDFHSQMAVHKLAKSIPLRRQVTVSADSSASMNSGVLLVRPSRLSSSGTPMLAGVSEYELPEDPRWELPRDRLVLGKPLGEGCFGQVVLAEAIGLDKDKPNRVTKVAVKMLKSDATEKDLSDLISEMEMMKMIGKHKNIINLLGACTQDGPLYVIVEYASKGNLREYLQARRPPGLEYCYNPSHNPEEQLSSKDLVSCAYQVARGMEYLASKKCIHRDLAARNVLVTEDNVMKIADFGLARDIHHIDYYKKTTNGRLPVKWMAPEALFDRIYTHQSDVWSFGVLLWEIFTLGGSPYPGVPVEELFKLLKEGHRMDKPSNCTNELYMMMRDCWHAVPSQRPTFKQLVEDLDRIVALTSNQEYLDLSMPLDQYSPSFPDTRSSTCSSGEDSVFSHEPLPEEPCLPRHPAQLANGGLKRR
Method in brief: as §1

HIPK4 = target: T6, HIPK4 (Homo sapiens, UniProt Q8NE63)
T6 construct: purchased Nanosyn (enzymatic panel); SGC in-house recombinant human kinases (DSF panel); Invitrogen (ALK1-6)
T6 sequence (Q8NE63 1-616): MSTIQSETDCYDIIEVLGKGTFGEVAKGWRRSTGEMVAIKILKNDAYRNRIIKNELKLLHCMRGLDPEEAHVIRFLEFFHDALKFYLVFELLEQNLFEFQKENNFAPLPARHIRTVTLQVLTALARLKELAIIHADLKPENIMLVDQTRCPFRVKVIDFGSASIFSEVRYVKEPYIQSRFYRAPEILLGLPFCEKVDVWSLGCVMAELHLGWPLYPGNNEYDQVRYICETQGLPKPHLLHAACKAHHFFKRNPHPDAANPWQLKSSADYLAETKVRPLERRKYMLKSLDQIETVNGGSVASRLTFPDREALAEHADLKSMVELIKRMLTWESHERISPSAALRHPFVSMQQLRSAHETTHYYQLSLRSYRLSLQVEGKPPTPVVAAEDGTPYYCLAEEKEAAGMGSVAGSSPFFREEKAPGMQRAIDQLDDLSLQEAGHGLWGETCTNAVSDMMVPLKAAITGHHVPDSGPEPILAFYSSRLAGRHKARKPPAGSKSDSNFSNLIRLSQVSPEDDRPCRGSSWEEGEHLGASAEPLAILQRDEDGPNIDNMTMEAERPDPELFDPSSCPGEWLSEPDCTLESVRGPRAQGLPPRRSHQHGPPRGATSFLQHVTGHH
Method in brief: as §1

IKK-β = target: T7, IKK-β (Homo sapiens, UniProt O14920)
T7 construct: purchased Nanosyn (enzymatic panel); SGC in-house recombinant human kinases (DSF panel); Invitrogen (ALK1-6)
T7 sequence (O14920 1-756): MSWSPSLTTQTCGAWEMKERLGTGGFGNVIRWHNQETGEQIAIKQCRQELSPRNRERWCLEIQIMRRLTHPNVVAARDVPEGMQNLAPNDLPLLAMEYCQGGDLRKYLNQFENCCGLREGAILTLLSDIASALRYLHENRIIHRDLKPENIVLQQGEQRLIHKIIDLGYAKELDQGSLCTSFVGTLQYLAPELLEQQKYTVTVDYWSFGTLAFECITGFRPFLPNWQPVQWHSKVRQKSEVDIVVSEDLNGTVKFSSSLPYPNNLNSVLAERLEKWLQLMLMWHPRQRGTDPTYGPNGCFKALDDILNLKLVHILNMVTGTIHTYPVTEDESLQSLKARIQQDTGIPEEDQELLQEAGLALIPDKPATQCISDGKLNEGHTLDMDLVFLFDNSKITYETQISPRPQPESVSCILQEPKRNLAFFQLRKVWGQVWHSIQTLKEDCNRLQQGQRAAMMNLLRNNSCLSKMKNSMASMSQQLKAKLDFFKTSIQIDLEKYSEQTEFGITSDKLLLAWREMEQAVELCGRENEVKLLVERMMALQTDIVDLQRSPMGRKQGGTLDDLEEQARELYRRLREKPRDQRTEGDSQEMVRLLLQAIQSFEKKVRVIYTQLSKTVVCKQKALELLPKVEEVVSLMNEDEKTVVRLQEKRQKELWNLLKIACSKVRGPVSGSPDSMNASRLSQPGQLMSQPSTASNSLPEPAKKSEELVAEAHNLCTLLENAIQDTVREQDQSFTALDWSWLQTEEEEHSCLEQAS
Method in brief: as §1

ITK = target: T8, ITK (Homo sapiens, UniProt Q08881)
T8 construct: purchased Nanosyn (enzymatic panel); SGC in-house recombinant human kinases (DSF panel); Invitrogen (ALK1-6)
T8 sequence (Q08881 1-620): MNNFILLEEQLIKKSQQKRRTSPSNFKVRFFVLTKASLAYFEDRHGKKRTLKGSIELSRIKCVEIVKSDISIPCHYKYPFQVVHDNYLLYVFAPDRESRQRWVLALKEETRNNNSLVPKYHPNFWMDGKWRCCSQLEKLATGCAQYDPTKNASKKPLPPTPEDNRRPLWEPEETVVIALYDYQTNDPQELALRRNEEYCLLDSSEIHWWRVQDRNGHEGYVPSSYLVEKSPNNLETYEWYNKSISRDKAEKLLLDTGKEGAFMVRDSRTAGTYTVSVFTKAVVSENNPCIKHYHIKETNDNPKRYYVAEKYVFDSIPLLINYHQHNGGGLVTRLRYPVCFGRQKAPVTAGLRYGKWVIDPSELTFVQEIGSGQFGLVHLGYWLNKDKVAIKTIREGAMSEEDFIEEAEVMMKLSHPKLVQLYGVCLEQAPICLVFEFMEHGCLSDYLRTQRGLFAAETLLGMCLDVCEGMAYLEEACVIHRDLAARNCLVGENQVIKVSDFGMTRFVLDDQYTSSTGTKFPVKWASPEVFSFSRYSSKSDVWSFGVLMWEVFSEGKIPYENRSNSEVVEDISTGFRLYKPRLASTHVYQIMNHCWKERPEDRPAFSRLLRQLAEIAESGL
Method in brief: as §1

PKCβ2 = target: T9, PKCβ2 (Homo sapiens, UniProt P05771)
T9 construct: purchased Nanosyn (enzymatic panel); SGC in-house recombinant human kinases (DSF panel); Invitrogen (ALK1-6)
T9 sequence (P05771 1-673 isoform P05771-2): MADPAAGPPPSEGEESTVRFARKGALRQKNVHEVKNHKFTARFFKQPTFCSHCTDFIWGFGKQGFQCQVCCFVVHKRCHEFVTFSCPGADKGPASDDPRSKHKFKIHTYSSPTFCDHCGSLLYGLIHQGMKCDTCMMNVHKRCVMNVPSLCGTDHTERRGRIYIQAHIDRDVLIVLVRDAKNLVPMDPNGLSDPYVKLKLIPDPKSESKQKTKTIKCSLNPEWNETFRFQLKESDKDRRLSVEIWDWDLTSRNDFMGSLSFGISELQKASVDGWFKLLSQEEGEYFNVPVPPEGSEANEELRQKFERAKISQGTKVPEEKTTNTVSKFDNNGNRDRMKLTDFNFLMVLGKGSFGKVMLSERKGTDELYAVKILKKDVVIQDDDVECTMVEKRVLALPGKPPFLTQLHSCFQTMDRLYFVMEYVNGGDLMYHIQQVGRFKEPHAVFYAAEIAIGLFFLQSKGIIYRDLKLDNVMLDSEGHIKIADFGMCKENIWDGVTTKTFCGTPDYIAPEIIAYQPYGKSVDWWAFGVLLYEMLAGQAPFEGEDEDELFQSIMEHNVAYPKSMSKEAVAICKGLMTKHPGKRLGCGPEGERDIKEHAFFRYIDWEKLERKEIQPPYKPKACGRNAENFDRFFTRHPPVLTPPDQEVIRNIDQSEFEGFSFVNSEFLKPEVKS
Method in brief: as §1

| SMILES | inhibition at 0.1 µM (ALK) [%] | inhibition at 1 µM (ALK) [%] | inhibition at 0.1 µM (BRK) [%] | inhibition at 1 µM (BRK) [%] | inhibition at 0.1 µM (CK1γ1) [%] | inhibition at 1 µM (CK1γ1) [%] | inhibition at 0.1 µM (CLK3) [%] | inhibition at 1 µM (CLK3) [%] | inhibition at 0.1 µM (FGFR1) [%] | inhibition at 1 µM (FGFR1) [%] | inhibition at 0.1 µM (HIPK4) [%] | inhibition at 1 µM (HIPK4) [%] | inhibition at 0.1 µM (IKK-β) [%] | inhibition at 1 µM (IKK-β) [%] | inhibition at 0.1 µM (ITK) [%] | inhibition at 1 µM (ITK) [%] | inhibition at 0.1 µM (PKCβ2) [%] | inhibition at 1 µM (PKCβ2) [%] |
| --- | --- | --- | --- | --- | --- | --- | --- | --- | --- | --- | --- | --- | --- | --- | --- | --- | --- | --- |
| COc1cc(-c2cc(-c3cccc(O)c3)cnc2N)cc(OC)c1OC [K02288, 3-[6-amino-5-(3,4,5-trimethoxy-phenyl)-pyridin-3-yl]-phenol] | -1 | 2.5 | 13 | 66 | 0 | 6.1 | 1.4 | 1.5 | -1 | -3 | 0.8 | 4.2 | -2 | 1.3 | 0 | 0 | 0 | -1 |
| c1ccc2c(-c3cnn4cc(-c5ccc(N6CCNCC6)cc5)cnc34)ccnc2c1 [LDN-193189] | 3.7 | 12 | 13 | 57 | 3.1 | 14 | 0.5 | 2.6 | 3.4 | 19 | 0 | 4.9 | 0.3 | 1.4 | 0.9 | 3.6 | 1 | 1.8 |
